This passage reports cell permeability results from EP4818192A1, “USE OF GRP78-LIKE PEPTIDES” (priority 2023, dated 2026).

Ends that are not written are not given here.

The data set concerns periodontal ligament cells (rPDL).
Experimental: A total of 5.0 × 10^4 cells were seeded, and the culture medium was removed and the cells were washed twice with DPBS. The prepared fluorescent peptides were mixed with serum-free culture medium at a concentration of 200 µg/mL and incubated for 1 hour. After 1 hour of treatment, the cells were washed five times with DPBS and mounted with a mounting solution containing DAPI.
On to MVLTKMKETAEAYLGKKVTH [SEQ ID NO: 3], for which the cell permeability entry is “high cell permeability”.

As for “MEHFIKLYKKKTGKDVRK [SEQ ID NO: 4, MEHFIKLYKKKTGKDVRK]”, the cell permeability result is listed as “high cell permeability”.

As to “TFAPEEISAMVLTK [SEQ ID NO: 1, TFAPEEISAMVLTK]”, the cell permeability entry is on record as “high cell permeability”.
